Experimental data from PMC8890504, “Evolution of Brain-Expressed Biogenic Amine Receptors into Olfactory Trace Amine-Associated Receptors” (Molecular Biology and Evolution, 2022).

Tests used:
TARLL1b = TARLL1b (Petromyzon marinus, UniProt A0AAJ7TCG4); test: Cell-based receptor activation reporter assay (SEAP / Dual-Glo luciferase); parameters: species or system sea lamprey; details: TARLL1b
Experimental: (§1) Fluorescence was measured with a BioTek Microplate reader.

TARLL4a = TARLL4a (Petromyzon marinus, UniProt A0AAJ7T9R0); test: as above; parameters: species or system sea lamprey; details: for EC50: TARLL4a
TARLL4a, sequence (A0AAJ7T9R0 entry or part of it): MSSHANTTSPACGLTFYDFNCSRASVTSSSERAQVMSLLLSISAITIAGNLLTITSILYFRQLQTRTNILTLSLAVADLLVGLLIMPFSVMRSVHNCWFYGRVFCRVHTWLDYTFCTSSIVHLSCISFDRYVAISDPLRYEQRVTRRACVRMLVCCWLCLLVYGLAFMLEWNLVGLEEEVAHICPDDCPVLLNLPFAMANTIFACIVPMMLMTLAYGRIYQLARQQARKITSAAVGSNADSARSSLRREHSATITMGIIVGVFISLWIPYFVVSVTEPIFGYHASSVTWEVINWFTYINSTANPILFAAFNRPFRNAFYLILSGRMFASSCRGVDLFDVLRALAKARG
Experimental: as §1

mouse HTR4 = mouse HTR4 (Mus musculus, UniProt P97288); test: cell-based
mouse HTR4, sequence (P97288 whole entry): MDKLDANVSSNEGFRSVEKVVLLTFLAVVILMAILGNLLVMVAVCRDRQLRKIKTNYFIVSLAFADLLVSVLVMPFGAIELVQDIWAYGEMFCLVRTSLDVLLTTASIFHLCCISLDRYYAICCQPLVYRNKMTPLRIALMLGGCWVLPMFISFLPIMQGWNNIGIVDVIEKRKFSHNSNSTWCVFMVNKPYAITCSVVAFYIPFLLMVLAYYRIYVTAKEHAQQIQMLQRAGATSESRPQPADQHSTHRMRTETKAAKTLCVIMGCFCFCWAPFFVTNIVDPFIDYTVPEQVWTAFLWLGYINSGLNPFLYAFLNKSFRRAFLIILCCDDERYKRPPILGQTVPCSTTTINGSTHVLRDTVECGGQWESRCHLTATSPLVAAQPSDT
From the text: (§2) Next, we conducted high-throughput screening to further explore the functional properties of these aminergic receptors. We cloned 248 TAARs from 11 mammals (human, mouse, rat, guinea pig, hamster, cat, horse, rabbit, sheep, rhesus, and wild boar), two reptiles (alligator and chicken), six teleosts (zebrafish, catfish, fugu, medaka, salmon, and pufferfish), one lobed-finned fish (coelacanth), one holost fish (spotted gar), and one cartilaginous fish (bamboo shark) (fig. 2A). We also cloned eight TARLs from coelacanth, zebrafish, catfish, fugu, medaka, spotted gar, shark, and 28 TARLLs from sea lamprey (supplementary table S2, Supplementary Material online). In addition, we cloned two HTR4s from mouse and zebrafish. We then challenged all of the cloned receptors with a ligand library comprised 97 amines at 100 µM.
(§3) HEK293 cells were plated onto poly-D-lysine (Sigma–Aldrich) preincubated 96-well plates (Corning) with 50 µl growth medium (DMEM medium with 10% BCS and 5% penicillin–streptomycin solution) and cultured for 18–24 h. Receptor plasmids were cotransfected with Cre-SEAP plasmid using polyethylenimine (PEI, Polysciences) and incubated at 37 °C with 5% CO2. About 4 h later, cells were incubated with or without test compounds diluted in serum-free DMEM for 48 h, followed by incubating for 2 h at 70 °C. After returning to room temperature, 50 µl supernatant from each well was incubated with an equal volume of 0.3 mM 4-methylumbelliferyl phosphate (4-MUP, Sigma–Aldrich) in 2 M diethanolamine bicarbonate (Sigma–Aldrich), pH 10.0 for 15 min. Fluorescence was measured with a BioTek Microplate reader.
(§4) Hana3A cells were plated onto 96-well plates (Greiner bio-one) with 50 µl growth medium (DMEM medium with 10% BCS and 5% penicillin–streptomycin solution with puromycin) and cultured at 37 °C with 5% CO2. After 18–24 h, cells in each well were cotransfected with 50 ng receptor plasmid, 10 ng CRE-Luc, 10 ng pRL-SV40, and 10 ng mRTPs using Lipofectamine 2000 (Invitrogen), and incubated for 18 h. Medium was then replaced by 25 µl CD293 (Invitrogen) containing 1% glutamine with or without test compounds for 4 h. The chemiluminescence of firefly luciferase and renilla luciferase were measured with a Biotek Microplate reader using the Dual-Glo Luciferase Assay System (Promega).

cat TAAR9 = test: Cell-based receptor activation reporter assay (SEAP / Dual-Glo luciferase); details: table S3
Experimental: as §1

hamster TAAR9 = target: T1, hamster TAAR9 (Mesocricetus auratus, UniProt A0A1U7R5X1); test: as above; details: table S3
T1 construct: Rho tag (N-terminal 20 aa of bovine rhodopsin); expressed in transfected cells; host or cells: HEK293T (SEAP assay) or Hana3A (Dual-Glo luciferase assay)
T1 sequence (A0A1U7R5X1 1-348): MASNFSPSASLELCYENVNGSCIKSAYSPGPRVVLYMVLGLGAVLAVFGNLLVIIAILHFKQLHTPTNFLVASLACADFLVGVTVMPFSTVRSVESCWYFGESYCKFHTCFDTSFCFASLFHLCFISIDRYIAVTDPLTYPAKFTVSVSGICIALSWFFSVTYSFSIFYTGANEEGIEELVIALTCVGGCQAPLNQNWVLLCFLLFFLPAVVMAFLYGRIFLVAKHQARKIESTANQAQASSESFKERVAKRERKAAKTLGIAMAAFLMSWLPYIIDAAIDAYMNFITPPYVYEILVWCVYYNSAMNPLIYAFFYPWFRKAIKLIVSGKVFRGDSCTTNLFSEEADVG
Experimental: as §1

rabbit TAAR9 = target: T2, rabbit TAAR9 (Oryctolagus cuniculus, UniProt G1SUU9); test: as above; details: table S3
T2 construct: Rho tag (N-terminal 20 aa of bovine rhodopsin); expressed in transfected cells; host or cells: HEK293T (SEAP assay) or Hana3A (Dual-Glo luciferase assay)
T2 sequence (G1SUU9 1-348): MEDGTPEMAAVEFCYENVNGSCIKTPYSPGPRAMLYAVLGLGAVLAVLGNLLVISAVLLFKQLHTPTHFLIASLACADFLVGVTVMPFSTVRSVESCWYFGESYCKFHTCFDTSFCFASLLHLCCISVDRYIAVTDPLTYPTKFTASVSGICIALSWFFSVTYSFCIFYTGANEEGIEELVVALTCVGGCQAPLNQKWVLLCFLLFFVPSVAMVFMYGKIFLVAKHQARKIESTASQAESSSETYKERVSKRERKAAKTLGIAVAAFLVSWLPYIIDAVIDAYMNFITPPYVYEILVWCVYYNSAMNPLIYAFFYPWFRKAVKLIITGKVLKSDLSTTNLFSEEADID
Experimental: as §1

rat TAAR9 = target: T3, rat TAAR9 (Rattus norvegicus, UniProt Q923Y6); test: as above; details: table S3
T3 construct: bovine rhodopsin N-terminal 20 amino acids (Rho tag); expressed in transfected cells; host or cells: HEK293(T) (SEAP assay) or Hana3A (Dual-Glo assay)
T3 sequence (Q923Y6 1-338): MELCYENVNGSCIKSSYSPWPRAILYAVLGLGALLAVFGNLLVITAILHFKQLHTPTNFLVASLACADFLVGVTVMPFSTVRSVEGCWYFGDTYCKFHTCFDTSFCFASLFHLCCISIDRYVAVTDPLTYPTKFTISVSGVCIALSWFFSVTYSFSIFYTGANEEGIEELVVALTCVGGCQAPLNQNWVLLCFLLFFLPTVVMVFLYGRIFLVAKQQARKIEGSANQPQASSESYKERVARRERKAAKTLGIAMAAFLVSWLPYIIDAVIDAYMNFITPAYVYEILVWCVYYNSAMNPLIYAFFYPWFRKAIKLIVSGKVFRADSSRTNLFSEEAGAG
Experimental: as §1

mouse TAAR9 = tested on: mouse TAAR9; parameters: method as in Saraiva et al. 2016; details: ref Saraiva et al. 2016; cited from earlier work
[1] = tested on: TARLL2a (also called TAAR346a); parameters: method as in Scott et al. 2019; details: ref Scott et al. 2019; cited from earlier work
zebrafish TAAR13c = tested on: zebrafish TAAR13c; parameters: method as in Hussain et al. 2013; details: ref Hussain et al. 2013; cited from earlier work
mouse TAAR1 = mouse TAAR1 (Mus musculus, UniProt Q923Y8); test: cell-based; details: ligands at 10 µM, luciferase assay, fig. 5B
mouse TAAR1, sequence (Q923Y8 whole entry): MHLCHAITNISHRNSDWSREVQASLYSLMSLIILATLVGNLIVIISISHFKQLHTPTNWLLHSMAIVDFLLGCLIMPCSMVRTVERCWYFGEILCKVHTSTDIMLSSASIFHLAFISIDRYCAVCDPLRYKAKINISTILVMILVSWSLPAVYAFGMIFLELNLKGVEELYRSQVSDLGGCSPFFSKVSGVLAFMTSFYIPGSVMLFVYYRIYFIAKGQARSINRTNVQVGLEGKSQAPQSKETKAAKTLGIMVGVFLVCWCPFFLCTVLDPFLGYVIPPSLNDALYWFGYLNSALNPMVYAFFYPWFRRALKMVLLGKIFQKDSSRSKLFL
From the text: as §2
We then compared the responses of HTR4 from mouse and zebrafish, TARL1 from zebrafish, catfish, fugu, medaka, spotted gar, and coelacanth, TARL2 from coelacanth and shark, TAAR1 from mouse and zebrafish to the 16 ligands at 10 µM (fig. 5B).
as §3, §4

TARLL1b, sequence (A0AAJ7TCG4 entry or part of it): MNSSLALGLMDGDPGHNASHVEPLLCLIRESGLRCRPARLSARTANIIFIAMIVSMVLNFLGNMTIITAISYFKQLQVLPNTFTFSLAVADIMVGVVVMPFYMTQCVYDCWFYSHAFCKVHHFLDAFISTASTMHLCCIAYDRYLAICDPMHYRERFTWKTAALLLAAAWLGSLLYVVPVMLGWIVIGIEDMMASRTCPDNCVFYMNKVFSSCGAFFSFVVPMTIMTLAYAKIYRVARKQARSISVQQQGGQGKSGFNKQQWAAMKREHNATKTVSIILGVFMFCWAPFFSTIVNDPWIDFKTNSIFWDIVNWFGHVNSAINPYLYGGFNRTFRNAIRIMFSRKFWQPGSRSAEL

Row | Structure (SMILES) | EC50 (TARLL1b) | EC50 (TARLL4a) | also measured
1 | Cn1ccc2ccccc21 [1-methylindole] | 162 µM |  | 
2 | Cc1c[nH]c2ccccc12 [3-methylindole] | 6.6 µM |  | 
3 | CSCCCN [3-methylthiopropylamine] |  | 62.4 µM | 
4 | NCCCCCO [5-amino-1-pentanol] |  | 40.3 µM | 
5 | COc1ccc2[nH]cc(CCN)c2c1 [5-methoxytryptamine] |  |  | EC50 (mouse HTR4): 0.09 µM
6 | Cc1ccc2[nH]ccc2c1 [5-methylindole] | 8.9 µM |  | 
7 | Cc1ccc2cc[nH]c2c1 [6-methylindole] | 9.1 µM |  | 
8 | Cc1cccc2cc[nH]c12 [7-methylindole] | 37.8 µM |  | 
9 | CCCCCN [Amylamine, amylamine] |  | 10.6 µM | 
10 | CCCCN [Butylamine, butylamine] |  | 73.5 µM | 
11 | NCCCCCN [Cadaverine, cadaverine] |  |  | activation of TAAR9 (cat TAAR9): activation; activation of TAAR9 (hamster TAAR9): activation; activation of TAAR9 (rabbit TAAR9): activation; activation of TAAR9 (rat TAAR9): activation; ligand recognition by mouse TAAR9 (mouse TAAR9): can recognize; ligand recognition by TARLL2a [1]: recognize; activation of TAAR13c (zebrafish TAAR13c): activates
12 | NC1CCCC1 [Cyclopentylamine, cyclopentylamine] |  | 113 µM | 
13 | CCCCCCN [Hexylamine, hexylamine] |  | 20.4 µM | ligand profile of TARLL4a (TARLL4a; ligand library at 100 µM, fig. 4B, fig. S9B): ligand profile includes; response of mouse TAAR1 (mouse TAAR1): slight responses
